Laboratory results published in ChEMBL document CHEMBL1129504, “Structure-activity relationship for antineoplastic imidazoacridinones: synthesis and antileukemic activity in vivo” (1996).

System: Mus musculus
Assay: In vivo activity against murine P388 leukemia in mice at optimal dose 70 mg/kg/day
Assay type: functional

## CN(C)CCCCCNc1ccc2ncn3c4ccc(O)cc4c(=O)c1c23
  T/C: 172%
